# ChEMBL document CHEMBL3603836, “Hybrid pyrimidine alkynyls inhibit the clinically resistance related Bcr-Abl(T315I) mutant” (Bioorg Med Chem Lett, 2015)
# Calls of active or inactive are those of the source. The calls are words filed in the database; no cut-off is given here.
# Experiments:
# Bcr/Abl fusion protein = Bcr/Abl fusion protein (Homo sapiens, UniProt P00519, T315I); format: protein assay
# [1] = Antiproliferative activity against mouse BA/F3 cells expressing wild type Bcr-Abl after 72 hrs by CCK-8 assay; format: functional, cell-based; conditions: BaF3, 72 h
# [2] = tested on: Tyrosine-protein kinase ABL1 (Mus musculus), P00520 [T315I]; experiment: Inhibition of Bcr-Abl T315I mutant phosphorylation in mouse BA/F3 cells after 4 hrs by Western blot analysis; format: cell-based; conditions: BaF3
# [3] = tested on: Tyrosine-protein kinase ABL1 (Mus musculus), P00520 [T315I]; experiment: Inhibition of Bcr-Abl T315I mutant in mouse BA/F3 cells assessed as reduction of STAT5 phosphorylation at 4 to 500 nM after 4 hrs by Western blot analysis; format: cell-based; conditions: BaF3
# [4] = tested on: Tyrosine-protein kinase ABL1 (Mus musculus), P00520 [T315I]; experiment: Inhibition of Bcr-Abl T315I mutant in mouse BA/F3 cells assessed as total protein level of CRKL at 4 to 500 nM after 4 hrs by Western blot analysis; format: cell-based; conditions: BaF3
# K562 [5] = experiment: Induction of apoptosis in human K562 cells expressing wild type Bcr-Abl assessed as early apoptotic cells at 0.8 nM after 24 hrs using annexin-V/7-AAD staining by FACS analysis (reference value: 7.3%); format: functional
# K562 [6] = experiment: Induction of apoptosis in human K562 cells expressing wild type Bcr-Abl assessed as early apoptotic cells at 4 nM after 24 hrs using annexin-V/7-AAD staining by FACS analysis (reference value: 7.3%); format: functional
# K562 [7] = experiment: Induction of apoptosis in human K562 cells expressing wild type Bcr-Abl assessed as early apoptotic cells at 20 nM after 24 hrs using annexin-V/7-AAD staining by FACS analysis (reference value: 7.3%); format: functional
# [8] = Cell cycle arrest in mouse BA/F3 cells expressing Bcr-Abl T315I mutant assessed as accumulation at G0/G1 phase at 4 nM after 24 hrs using propidium iodide staining by flow cytometry (reference value: 51.92%); format: functional, cell-based; conditions: BaF3
# [9] = Cell cycle arrest in mouse BA/F3 cells expressing Bcr-Abl T315I mutant assessed as accumulation at G0/G1 phase at 100 nM after 24 hrs using propidium iodide staining by flow cytometry (reference value: 51.92%); format: functional, cell-based; conditions: BaF3
# BaF3 [10] = experiment: Induction of apoptosis in mouse BA/F3 cells expressing Bcr-Abl T315I mutant assessed as late apoptotic cells at 4 nM after 24 hrs using annexin-V/7-AAD staining by FACS analysis (reference value: 2.2%); format: functional
# BaF3 [11] = experiment: Induction of apoptosis in mouse BA/F3 cells expressing Bcr-Abl T315I mutant assessed as early apoptotic cells at 4 nM after 24 hrs using annexin-V/7-AAD staining by FACS analysis (reference value: 4.6%); format: functional
# BaF3 [12] = experiment: Induction of apoptosis in mouse BA/F3 cells expressing Bcr-Abl T315I mutant assessed as late apoptotic cells at 20 nM after 24 hrs using annexin-V/7-AAD staining by FACS analysis (reference value: 2.2%); format: functional
# BaF3 [13] = experiment: Induction of apoptosis in mouse BA/F3 cells expressing Bcr-Abl T315I mutant assessed as early apoptotic cells at 20 nM after 24 hrs using annexin-V/7-AAD staining by FACS analysis (reference value: 4.6%); format: functional
# BaF3 [14] = experiment: Induction of apoptosis in mouse BA/F3 cells expressing Bcr-Abl T315I mutant assessed as early apoptotic cells at 100 nM after 24 hrs using annexin-V/7-AAD staining by FACS analysis (reference value: 4.6%); format: functional
# K562 [15] = experiment: Induction of apoptosis in human K562 cells expressing wild type Bcr-Abl assessed as early apoptotic cells after 24 hrs using annexin-V/7-AAD staining by FACS analysis; format: functional, cell-based
# [16] = Ratio of Cmax in Sprague-Dawley rat at 25 mg/kg, po to IC50 for Bcr-Abl T315I mutant (unknown origin); format: ADME, organism-based; conditions: in vivo
# K562 [17] = experiment: Antitumor activity against human K562 cells expressing wild type Bcr-Abl xenografted in mouse assessed as complete eradication of tumor at 10 mg/kg, po qd for 8 days; format: functional, organism-based
# Chain of Tyrosine-protein kinase ABL1 (Mus musculus), P00520 [T315I] (P00520 whole entry T315I): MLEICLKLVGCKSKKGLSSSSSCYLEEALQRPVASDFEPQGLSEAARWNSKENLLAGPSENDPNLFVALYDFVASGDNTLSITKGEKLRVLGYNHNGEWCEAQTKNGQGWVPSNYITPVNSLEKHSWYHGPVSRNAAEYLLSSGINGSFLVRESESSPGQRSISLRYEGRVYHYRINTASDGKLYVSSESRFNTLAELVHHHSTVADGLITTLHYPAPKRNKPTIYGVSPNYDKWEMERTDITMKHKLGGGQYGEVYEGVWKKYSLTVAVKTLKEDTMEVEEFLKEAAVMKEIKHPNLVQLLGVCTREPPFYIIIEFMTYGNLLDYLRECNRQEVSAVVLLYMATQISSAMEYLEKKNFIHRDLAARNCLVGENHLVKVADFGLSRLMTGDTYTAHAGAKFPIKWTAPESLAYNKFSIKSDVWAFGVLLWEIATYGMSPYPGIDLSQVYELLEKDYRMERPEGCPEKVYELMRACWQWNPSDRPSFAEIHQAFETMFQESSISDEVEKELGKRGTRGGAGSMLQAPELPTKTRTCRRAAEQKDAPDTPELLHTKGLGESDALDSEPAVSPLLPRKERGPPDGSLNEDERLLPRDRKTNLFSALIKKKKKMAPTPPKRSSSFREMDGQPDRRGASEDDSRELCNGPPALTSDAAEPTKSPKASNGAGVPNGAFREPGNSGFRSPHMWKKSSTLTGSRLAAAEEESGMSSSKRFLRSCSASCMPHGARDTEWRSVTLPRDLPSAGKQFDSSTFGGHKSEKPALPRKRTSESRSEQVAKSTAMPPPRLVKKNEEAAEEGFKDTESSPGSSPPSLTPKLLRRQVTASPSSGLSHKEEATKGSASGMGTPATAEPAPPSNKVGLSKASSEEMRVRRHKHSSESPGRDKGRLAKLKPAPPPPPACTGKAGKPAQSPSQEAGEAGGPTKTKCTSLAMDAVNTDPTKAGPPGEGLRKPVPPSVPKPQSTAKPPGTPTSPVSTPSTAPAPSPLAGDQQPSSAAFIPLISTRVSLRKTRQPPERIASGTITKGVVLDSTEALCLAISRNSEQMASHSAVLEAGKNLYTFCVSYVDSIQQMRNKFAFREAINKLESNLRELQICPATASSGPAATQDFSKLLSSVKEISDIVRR
smiles,measurement,setting,value
Cc1cn(-c2cc(NC(=O)c3ccc(C)c(C#Cc4cnc(NC5CC5)nc4)c3)cc(C(F)(F)F)c2)cn1,IC50,Bcr/Abl fusion protein,9 nM
same,IC50,[1],2 nM
same,inhibition,[2],Dose-dependent effect
same,inhibition,[3],Active
same,inhibition,[4],inactive
same,Activity,K562 [5],7.1%
same,Activity,K562 [6],6.7%
same,Activity,K562 [7],14.2%
same,Activity,[8],52.4%
same,Activity,[9],67.2%
same,Activity,BaF3 [10],3.3%
same,Activity,BaF3 [11],5.8%
same,Activity,BaF3 [12],4.1%
same,Activity,BaF3 [13],6.6%
same,Activity,BaF3 [14],7.1%
same,Activity,K562 [15],Dose-dependent effect
same,Ratio,[16],1333
same,Activity,K562 [17],Active
